Source: patent EP0676201B1, “Use of a riminophenazine for treating MDR resistance” (priority 1994, dated 1995)
Values after ≈ are worked out from the molar mass of the structure shown. Read-outs that look alike come from different tables or passages of the source.

Assays:
H69/LX4 [1] = assay: [14C]-vinblastine accumulation in MDR cell line (Example 2); format: cell-based, human; settings: 1 hour pretreatment; 250 µg/mℓ [14C]-vinblastine for 30 minutes
Method: The effect of riminophenazines on the accumulation of [^14C]-vinblastine was investigated. For these experiments, both of the above cell lines (H69/LX4 and H69/P) were prepared as described by Coley et al (Biochem. Pharmacal 38, 4467-4475 (1989)). After a 1 hour pretreatment with the MDR reversal agents, cells (1 x 10^6/mℓ) were exposed to 250 µg/mℓ [^14C]-vinblastine (1 µCi specific activity) for 30 minutes. […] The results are illustrated in Figure 3 of the accompanying drawings.

K562/MMB = assay: MTT assay, 7-day exposure to riminophenazines alone or with fixed doxorubicin or vinblastine (Example 4); format: cell-based; settings: Homo sapiens, K562, 168 h
Source text: A third cell line (562/MMB) used was a MDR leukemia cell line selected in vitro by progressive exposure to increasing concentrations of vinblastine in order to increase P-glycoprotein expression. […] This cell line expresses high levels of P-glycoprotein as determined by flowcytometry using the monoclonal antibody (MRK 16) against this molecule.
The effects were examined of a 7-day exposure of selected compounds on the sensitivity of the cell line (K562/MMB) to the standard chemotherapeutic agents doxorubicin and vinblastine, using the MTT assay.
The cells were seeded at 1 x 10^4 cells per well in 96 well microlitre plates in a volume of 200 µl of RPMI 1640 medium containing 10 % fetal calf serum and incubated with doxorubicin (12.5 ng/ml) or vinblastine (3 ng/ml). The amounts of MDR modulators used were 0.03, 0.06, 0.125, 0.5, 1.0 and 2.0 µg/ml.
After incubation at 37 °C for 7 days, 20 µl MTT (i.e. 3-[4,5-dimethylthiazol-2-yl]2,5-diphenyl-tetrazolium bromide) at 5 mg/ml was added to each well and the plates incubated for a further 4 hours. The cells were washed with phosphate buffered saline and the intracellular formazan crystals solubilized with dimethylsulphoxide, and the absorbency measured spectrophotometrically at a test wavelength of 540 nm and a reference wavelength of 620 nm.

H69/LX4 [2] = assay: MTT assay, 7-day exposure to riminophenazines alone or with fixed doxorubicin or vinblastine (Example 3); settings: Homo sapiens, 168 h, read-out: cytotoxic activity: concentrations at which cytotoxic
Method: The effects were examined of a 7-day exposure of selected compounds on the sensitivity of the cell line (H69/P) and the resistance cell line (H69/LX4) to the standard chemotherapeutic agents doxorubicin and vinblastine, using the MTT assay.
After incubation at 37°C for 7 days, 20 µℓ MTT (ie 3-[4,5-dimethylthiazol-2-yl]-2,5-diphenyl-tetrazolium bromide) at 5 mg/ml was added to each well and the plates incubated for a further 4 hours. The cells were washed with phosphate buffered saline and the intracellular formazan crystals solubilized with dimethylsulphoxide, and the absorbence measured spectrophotometrically at a test wavelength of 540 nm and a reference wavelength of 620 nm. The mean percentage inhibition ± SEM of four experiments using the relevant controls was taken.

H69/P = assay: MTT assay, 7-day exposure: sensitivity of parent cells to chemotherapeutic agents with or without MDR inhibitor (Example 1); format: cell-based, human; settings: for fold sensitivity compared with the chemotherapeutic agent without the MDR inhibitor, B669 / fold sensitivity compared with the chemotherapeutic agent without the MDR inhibitor, Clofazimine (B663) / fold sensitivity compared with the chemotherapeutic agent without the MDR inhibitor, CsA: value in parenthesis; for fold sensitivity compared with the chemotherapeutic agent without the MDR inhibitor, CsA: with CsA 5 µg/ml; for IC50: Homo sapiens, 168 h
Source text: (§1) A further test using no MDR inhibitor was used as a standard.

H69/LX4 [3] = assay: MTT assay, 7-day exposure: sensitivity of resistant (MDR) cells to chemotherapeutic agents with or without MDR inhibitor (Example 1); format: cell-based; settings: Homo sapiens, 168 h
Source text: as §1
The cell lines used were human small cell lung cancer cell line HP69/P and a multi-drug resistant (MDR) sub-line H69/LX4, both of which were supplied by the MRC Clinical Oncology and Radiotherapeutics Unit, Hills Road, Cambridge, England. The maintenance of the cell lines and drug response assays was done as described by Twentyman et al in British Journal of Cancer Volume 65 pages 335-340. The H69/LX4 line was originally described by Twentyman et al in British Journal of Cancer Volume 53, pages 529-637 (1986).
The data in parenthesis represents fold sensitivity compared with the chemotherapeutic agent without the MDR inhibitor.

[4] = in the presence of doxorubicin (12 ng/ml), read-out: IC 50 of riminophenazine, Doxorubicin
[5] = in the presence of vinblastine (3 ng/ml), read-out: IC 50 of riminophenazine, Vinblastine
[6] = riminophenazine alone, mean of 2 experiments, read-out: IC 50 of riminophenazine, None
[7] = H69/P, with Clofazimine 1 µg/ml
[8] = read-out: IC50 of chemotherapeutic agent, MDR INHIBITOR CsA
[9] = H69/P, no MDR inhibitor, 7 day exposure, mean of 2 - 4 experiments, read-out: IC50 of chemotherapeutic agent, MDR INHIBITOR None
[10] = H69/P, with B669 0.5 µg/ml, 7 day exposure, read-out: IC50 of chemotherapeutic agent, MDR INHIBITOR B669
[11] = H69/P, with Clofazimine 1 µg/ml, 7 day exposure, read-out: IC50 of chemotherapeutic agent, MDR INHIBITOR Clofazimine (B663)
[12] = H69/LX4, no MDR inhibitor, 7 day exposure, mean of 2 - 4 experiments, read-out: IC50 of chemotherapeutic agent, MDR INHIBITOR None
[13] = H69/LX4, with B669 0.5 µg/ml, 7 day exposure, read-out: IC50 of chemotherapeutic agent, MDR INHIBITOR B669
[14] = H69/LX4, with Clofazimine 1 µg/ml, 7 day exposure, read-out: IC50 of chemotherapeutic agent, MDR INHIBITOR Clofazimine (B663)

Compound | vinblastine accumulation in the MDR cell line (H69/LX4) (H69/LX4 [1]) | IC50 (K562/MMB; [4]) [µg/mL] | IC50 (K562/MMB; [5]) [µg/mL] | IC50 (K562/MMB; [6]) [µg/mL] | MCC (H69/LX4 [2]) [µg/mL] | fold sensitivity compared with the chemotherapeutic agent without the MDR inhibitor, B669 (H69/P; H69/P, with B669 0.5 µg/ml) [fold] | fold sensitivity compared with the chemotherapeutic agent without the MDR inhibitor, Clofazimine (B663) (H69/P; [7]) [fold] | fold sensitivity compared with the chemotherapeutic agent without the MDR inhibitor, CsA (H69/P; H69/P) [fold] | IC50 (H69/P; [8]) [µg/mL] | IC50 (H69/P; [9]) [µg/mL] | IC50 (H69/P; [10]) [µg/mL] | IC50 (H69/P; [11]) [µg/mL] | IC50 (H69/LX4 [3]; [8]) [µg/mL] | IC50 (H69/LX4 [3]; [12]) [µg/mL] | IC50 (H69/LX4 [3]; [13]) [µg/mL] | IC50 (H69/LX4 [3]; [14]) [µg/mL] | IC50 (H69/P; read-out: IC50 of chemotherapeutic agent, MDR INHIBITOR B669) [µg/mL] | IC50 (H69/P; read-out: IC50 of chemotherapeutic agent, MDR INHIBITOR Clofazimine (B663)) [µg/mL]
CC(C)N=c1cc2n(-c3ccc(Cl)cc3)c3ccccc3nc-2cc1Nc1ccc(Cl)cc1 [Compound B663, N,5-bis-(4-chlorophenyl)-3,5-dihydro-3-[(1-methylethyl)imino]-2-phenazinamine] | significant enhancement | 0.135 | < 0.05 | 0.225 (≈ 0.475 µM) |  |  |  |  |  |  |  |  |  |  |  |  |  | 
c1ccc(Nc2cc3nc4ccccc4n(-c4ccccc4)c-3cc2=NC2CCCCC2)cc1 [Compound B669] | significant enhancement | 0.069 |  | 0.139 (≈ 0.313 µM) |  |  |  |  |  |  |  |  |  |  |  |  |  | 
CC1(C)CC(N=c2cc3n(-c4cc(Cl)c(Cl)c(Cl)c4)c4ccccc4nc-3cc2Nc2cc(Cl)c(Cl)c(Cl)c2)CC(C)(C)N1 [Compound B4169, N,5-bis(3,4,5-trichlorophenyl)-3,5-dihydro-3[(2',2',6',6'-tetramethyl-4-piperidyl)-imino]-2-phenazinamine] |  | 0.969 | 0.116 | 2.86 (≈ 4.04 µM) | > 12.5 |  |  |  |  |  |  |  |  |  |  |  |  | 
CN(Cc1cnc2nc(N)nc(N)c2n1)c1ccc(C(=O)N[C@@H](CCC(=O)O)C(=O)O)cc1 [Methotrexate] |  |  |  |  |  | 1.0 | 0.9 | 1.5 | 2.4 (≈ 5.28 µM) | 3.5 (≈ 7.7 µM) | 3.4 (≈ 7.48 µM) | 3.7 (≈ 8.14 µM) | 4.6 (≈ 10.1 µM) | 3.2 (≈ 7.04 µM) | 3.5 (≈ 7.7 µM) | 4.4 (≈ 9.68 µM) |  | 
CO[C@@]12[C@H](COC(N)=O)C3=C(C(=O)C(C)=C(N)C3=O)N1C[C@@H]1N[C@@H]12 [Mitomycin C] |  |  |  |  |  |  |  |  | 0.009 (≈ 0.0269 µM) |  |  |  | 0.08 (≈ 0.239 µM) |  | 0.04 (≈ 0.12 µM) | 0.06 (≈ 0.179 µM) | 0.01 (≈ 0.0299 µM) | 0.01 (≈ 0.0299 µM)
CC[C@]1(O)C[C@@H]2CN(CCc3c([nH]c4ccccc34)[C@@](C(=O)OC)(c3cc4c(cc3OC)N(C)[C@H]3[C@@](O)(C(=O)OC)[C@H](OC(C)=O)[C@]5(CC)C=CCN6CC[C@]43[C@@H]65)C2)C1 [Vinblastine] |  |  |  |  |  | 1.1 | 1.3 | 1.4 | 0.0007 (≈ 0.000863 µM) | 0.001 (≈ 0.00123 µM) | 0.0009 (≈ 0.00111 µM) | 0.0008 (≈ 0.000986 µM) | 0.008 (≈ 0.00986 µM) | 0.12 (≈ 0.148 µM) | 0.008 (≈ 0.00986 µM) | 0.008 (≈ 0.00986 µM) |  | 
